Test [1] addresses T1, farnesoid X receptor (FXR) (Homo sapiens, UniProt Q96RI1).
T1 construct: gene NR1H4; human FXR protein (His Tag; Cat: 17624-H07E)
T1 sequence (Q96RI1 1-486): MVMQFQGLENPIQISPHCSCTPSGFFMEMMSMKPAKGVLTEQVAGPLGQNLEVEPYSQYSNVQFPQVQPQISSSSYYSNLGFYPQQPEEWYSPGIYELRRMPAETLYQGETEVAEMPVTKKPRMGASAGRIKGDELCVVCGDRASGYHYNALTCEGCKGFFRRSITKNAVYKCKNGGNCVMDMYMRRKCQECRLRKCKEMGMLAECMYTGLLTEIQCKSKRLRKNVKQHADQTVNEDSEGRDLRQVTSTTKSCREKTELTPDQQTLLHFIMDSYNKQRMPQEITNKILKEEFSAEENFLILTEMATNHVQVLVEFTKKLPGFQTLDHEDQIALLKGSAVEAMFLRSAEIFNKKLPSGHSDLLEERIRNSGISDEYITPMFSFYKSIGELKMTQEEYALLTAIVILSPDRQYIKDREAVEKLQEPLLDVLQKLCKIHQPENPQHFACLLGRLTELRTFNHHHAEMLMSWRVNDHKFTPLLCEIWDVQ
The experiment in a line: retention of standard on immobilized-FXR affinity column ([…]D biochromatography). In kind it is binding.

In test [2] the target is T1, farnesoid X receptor (FXR). The experiment in a line: SPR (Biacore T200); also frontal affinity chromatography KD […]. The class given is binding. (In general: In SPR one partner is held on a chip, and binding of the other changes the refractive index at the surface.)

In the case of `O=C1c2cccc(O)c2C(=O)c2c(O)cc(CO)cc21` [aloe-emodin], the “retention of standard on immobilized-FXR affinity column (2D biochromatography)” value in test [1] is “emodin, physcion, aloe-emodin, and TSG exhibited distinct retentions, thereby confirming their strong binding affinities for FXR”.

On to `COc1cc(O)c2c(c1)C(=O)c1cc(C)cc(O)c1C2=O` [physcion], for which the Kd (in general, a measure of binding affinity in units of concentration) in test [2] is 30.3 µM.

These data come from article PMC12757379 (Frontiers in Pharmacology, 2025).
